Measurements: patent US8003649B2 (AstraZeneca AB, priority 2007, dated 2011)

Molecular target: T1, Androgen Receptor (AR) (Homo sapiens, UniProt P10275, T878A)
T1 construct: cell based immuno-fluorescence assay using the LNCaP prostate epithelial cell line; endogenous in cells; host or cells: LNCaP clone FGC (ATCC CRL-1740)
T1 sequence (P10275 1-920 T878A): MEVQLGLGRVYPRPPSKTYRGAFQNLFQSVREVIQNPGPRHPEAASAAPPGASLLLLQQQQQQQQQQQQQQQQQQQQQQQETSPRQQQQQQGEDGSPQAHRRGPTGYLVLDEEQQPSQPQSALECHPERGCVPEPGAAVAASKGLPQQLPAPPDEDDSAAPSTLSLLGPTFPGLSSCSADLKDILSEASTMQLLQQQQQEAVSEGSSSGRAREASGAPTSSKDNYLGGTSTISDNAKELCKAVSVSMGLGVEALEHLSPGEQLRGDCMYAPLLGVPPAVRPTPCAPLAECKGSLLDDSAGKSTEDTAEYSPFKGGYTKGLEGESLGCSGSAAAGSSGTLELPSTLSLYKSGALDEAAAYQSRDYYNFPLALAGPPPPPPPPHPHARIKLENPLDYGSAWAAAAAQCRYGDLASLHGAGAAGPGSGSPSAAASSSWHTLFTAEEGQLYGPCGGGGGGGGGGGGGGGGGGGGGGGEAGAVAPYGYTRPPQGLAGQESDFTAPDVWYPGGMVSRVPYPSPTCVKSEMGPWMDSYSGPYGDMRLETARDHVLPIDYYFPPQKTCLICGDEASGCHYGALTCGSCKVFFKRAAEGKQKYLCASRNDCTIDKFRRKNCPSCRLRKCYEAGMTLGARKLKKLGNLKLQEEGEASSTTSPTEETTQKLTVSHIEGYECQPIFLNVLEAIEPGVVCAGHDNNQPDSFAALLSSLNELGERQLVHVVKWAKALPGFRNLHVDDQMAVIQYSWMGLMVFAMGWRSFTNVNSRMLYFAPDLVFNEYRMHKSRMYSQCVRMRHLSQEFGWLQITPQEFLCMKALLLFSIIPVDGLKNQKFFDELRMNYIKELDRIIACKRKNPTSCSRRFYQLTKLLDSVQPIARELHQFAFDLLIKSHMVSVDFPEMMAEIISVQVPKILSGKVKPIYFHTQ
Assay: LNCaP Androgen Receptor Down-regulation Cell Assay (immunofluorescence end point)
Assay type: cell-based
Conditions: LNCaP prostate carcinoma cells, compound incubation 20-22 hours, 50% reduction of the AR signal; read-out: Androgen Receptor Down-regulation Assay (a) IC50/μM
Summary of the method: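 AR loss reported as IC50 from curve fits of fluorescence dose-response data, with AR immunostained and read by laser-scanning cytometry. Compound exposure was 20-22 h at 37° C in LNCaP cells grown in 5% charcoal-stripped FBS and plated overnight beforehand.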

| Compound | DC50 [µM] |
| --- | --- |
| CCC(F)(F)c1nnc2ccc(N3CCN(Cc4cccc(C#N)c4)CC3)nn12 [Example 246] | 23 |
| N#Cc1cccc(CN2CCN(c3ccc4nnc(C(F)F)n4n3)CC2)c1 [Example 238] | 5 |
| Fc1ccccc1CN1CCCN(c2ccc3nnc(C(F)(F)F)n3n2)CC1 [Example 169, 6-[4-[(2-fluorophenyl)methyl]-1,4-diazepan-1-yl]-3-(trifluoromethyl)-[1,2,4]triazolo[4,3-b]pyridazine] | 0.92 |
| O=C(NCCN1CCOCC1)c1ccc2[nH]cc(C3CCN(c4ccc5nnc(C(F)(F)F)n5n4)CC3)c2c1 [Example 503] | 4.3 |
| FC(F)(F)c1nnc2ccc(N3CCN(Cc4cccc5nccnc45)CC3)nn12 [Example 103, 5-[[4-[3-(trifluoromethyl)[1,2,4]triazolo[4,3-b]pyridazin-6-yl]piperazin-1-yl]methyl]quinoxaline] | 6.2 |
| O=S(=O)(c1ccc(F)cc1)N1CCN(c2ccc3nnc(C(F)(F)F)n3n2)CC1 [Example 405] | 3 |
| Fc1ccc(C2=CCN(c3ccc4nnc(C(F)(F)F)n4n3)CC2)cc1 [Example 552] | 7.8 |
| FC(F)(F)Oc1ccc(CN2CCN(c3ccc4nnc(C(F)(F)F)n4n3)CC2)cc1 [Example 131, 6-[4-[[4-(trifluoromethoxy)phenyl]methyl]piperazin-1-yl]-3-(trifluoromethyl)-[1,2,4]triazolo[4,3-b]pyridazine] | 4.1 |
| OC1(c2cncc(C(F)(F)F)c2)CCN(c2ccc3nnc(C(F)(F)F)n3n2)CC1 [Example 320, 4-[5-(trifluoromethyl)pyridin-3-yl]-1-[3-(trifluoromethyl)[1,2,4]triazolo[4,3-b]pyridazin-6-yl]piperidin-4-ol] | 8.6 |
| Fc1ccc(CN2CCN(c3ccc4nnc(C(F)(F)F)n4c3)CC2)cc1 [Example 191, 6-[4-[(4-fluorophenyl)methyl]piperazin-1-yl]-3-(trifluoromethyl)-[1,2,4]triazolo[4,3-a]pyridine] | 2.1 |
| C[C@@H]1CN(c2ccc3nnc(C(F)(F)F)n3n2)CCN1Cc1ccc(C#N)cc1 [Example 565] | 3.5 |
| FC(F)(F)c1nnc2ccc(N3CC4CN(Cc5cnccc5Cl)CC4C3)nn12 (centres unmarked) [Example 800] | 1.1 |
| C[C@H]1CN(Cc2ccccn2)CCN1c1ccc2nnc(C(F)(F)F)n2n1 [Example 359] | 2.6 |
| COc1cccc(OC2CCN(c3ccc4nnc(C(F)(F)F)n4c3)CC2)c1 [Example 806, 6-[4-(3-methoxyphenoxy)piperidin-1-yl]-3-(trifluoromethyl)[1,2,4]triazolo[4,3-a]pyridine] | 2.3 |
| N#Cc1ccc(OC2CCN(c3ccc4nnc(C(F)(F)F)n4n3)CC2)nc1 [Example 628] | 2.7 |
| Fc1cccc(OC2CCN(c3ccc4nnc(C(F)(F)F)n4n3)CC2)c1 [Example 532] | 0.98 |
| FC(F)(F)c1nnc2ccc(N3CCN(Cc4csc5ccccc45)CC3)nn12 [Example 60, 6-[4-(1-benzothiophen-3-ylmethyl)piperazin-1-yl]-3-(trifluoromethyl)-[1,2,4]triazolo[4,3-b]pyridazine] | 0.61 |
| Fc1cc(CN2CCN(c3ccc4nnc(C(F)F)n4n3)CC2)cc(C(F)F)c1 [Example 784, 3-(difluoromethyl)-6-[4-[3-(difluoromethyl)-5-fluorobenzyl]piperazin-1-yl][1,2,4]triazolo[4,3-b]pyridazine] | 2.2 |
| FC(F)(F)c1nnc2ccc(N3CCN(Cc4cccc5c4OCO5)CC3)nn12 [Example 102, 6-[4-(1,3-benzodioxol-4-ylmethyl)piperazin-1-yl]-3-(trifluoromethyl)-[1,2,4]triazolo[4,3-b]pyridazine] | 2.9 |
| COc1ccncc1CN1CC2CN(c3ccc4nnc(C(F)(F)F)n4n3)CC2C1 (centres unmarked) [Example 803] | 7 |
| FC(F)(F)c1nnc2ccc(N3CCC(c4c[nH]c5cnccc45)CC3)nn12 [Example 327] | 1 |
| CN1CCN(CCCOc2ccc(OC3CCN(c4ccc5nnc(C(F)(F)F)n5n4)CC3)cc2)CC1 [Example 437] | 0.53 |

| Compound | DC50 [µM] |
| --- | --- |
| Cn1cccc1CN1CCN(c2ccc3nnc(C(F)(F)F)n3n2)CC1 [Example 87, 6-[4-[(1-methylpyrrol-2-yl)methyl]piperazin-1-yl]-3-(trifluoromethyl)-[1,2,4]triazolo[4,3-b]pyridazine] | 5.2 |
| O=C(NCCN1CCCC1)c1ccc(C2CCN(c3ccc4nnc(C(F)(F)F)n4n3)CC2)cc1 [Example 631] | 1.1 |
| FC(F)(F)c1nnc2ccc(N3CCC(c4ccc(OCc5cnco5)cc4)CC3)nn12 [Example 734] | 2.5 |
| CS(=O)(=O)Nc1cccc(CN2CCN(c3ccc4nnc(C(F)(F)F)n4n3)CC2)c1 [Example 150, N-[3-[[4-[3-(trifluoromethyl)-[1,2,4]triazolo[4,3-b]pyridazin-6-yl]piperazin-1-yl]methyl]phenyl]methanesulfonamide] | 7.6 |
| FC(F)(F)c1nnc2ccc(N3CCC(Cc4ccccc4)CC3)nn12 [Example 535] | 1.9 |
| COc1ccccc1S(=O)(=O)N1CCN(c2ccc3nnc(C(F)(F)F)n3n2)CC1 [Example 397] | 3.9 |
| FC(F)(F)c1nnc2ccc(N3CCN(Cc4cnccn4)CC3)nn12 [Example 55, 6-[4-(pyrazin-2-ylmethyl)piperazin-1-yl]-3-(trifluoromethyl)-[1,2,4]triazolo[4,3-b]pyridazine] | 8.8 |
| FC(F)(F)c1nnc2ccc(N3CCC(Oc4cnccn4)CC3)nn12 [Example 544] | 2.9 |
| N#Cc1ccc(CN2CC3CN(c4ccc5nnc(C(F)(F)F)n5n4)CC3C2)cn1 (centres unmarked) [Example 837, 5-[[5-[3-(trifluoromethyl)[1,2,4]triazolo[4,3-b]pyridazin-6-yl]hexahydropyrrolo[3,4-c]pyrrol-2(1H)-yl]methyl]pyridine-2-carbonitrile] | 1.6 |
| O=C(c1cccc(OC2CCN(c3ccc4nnc(C(F)(F)F)n4n3)CC2)c1)N1CC[C@@H](O)C1 [Example 691] | > 28 |
| COc1ncc(C2=CCN(c3ccc4nnc(C(F)(F)F)n4n3)CC2)cc1F [Example 609] | 6.6 |
| CN(CCN1CCOCC1)C(=O)c1ccc(C2CCN(c3ccc4nnc(C(F)(F)F)n4n3)CC2)cc1 [Example 754, N-methyl-N-(2-morpholin-4-ylethyl)-4-[1-[3-(trifluoromethyl)[1,2,4]triazolo[4,3-b]pyridazin-6-yl]piperidin-4-yl]benzamide] | 2.5 |
| Cc1cc(COc2cccc(C3CCN(c4ccc5nnc(C(F)(F)F)n5n4)CC3)c2)no1 [Example 674] | 1.1 |
| Fc1cccc(CN2CC=C(c3ccc4nnc(C(F)(F)F)n4n3)CC2)c1 [Example 272, 6-[1-(3-fluorobenzyl)-1,2,3,6-tetrahydropyridin-4-yl]-3-(trifluoromethyl)-[1,2,4]triazolo[4,3-b]pyridazine] | 1.8 |
| Fc1cccc(OCC2CN(c3ccc4nnc(C(F)(F)F)n4n3)C2)c1 [Example 491] | 7.2 |
| N#Cc1ccc(CN2CCN(c3ccc4nnc(C(F)F)n4n3)CC2)c(F)c1 [Example 262] | 25 |
| Fc1ccc(OC2CN(c3ccc4nnc(C(F)(F)F)n4n3)C2)cc1 [Example 484] | > 14 |
| COc1cccc(OC2CCN(c3ccc4nnc(C(F)(F)F)n4n3)CC2)c1 [Example 527] | 0.67 |
| N#Cc1ccc(CN2CC3CN(c4ccc5nnc(C(F)(F)F)n5n4)CC3C2)cc1 (centres unmarked) [Example 205, 4-[[5-[3-(trifluoromethyl)-[1,2,4]triazolo[4,3-b]pyridazin-6-yl]-1,3,3a,4,6,6a-hexahydropyrrolo[3,4-c]pyrrol-2-yl]methyl]benzonitrile] | 0.53 |
| C[C@H]1CN(Cc2cccnc2)CCN1c1ccc2nnc(C(F)(F)F)n2n1 [Example 593, 6-[(2S)-2-methyl-4-(pyridin-3-ylmethyl)piperazin-1-yl]-3-(trifluoromethyl)[1,2,4]triazolo[4,3-b]pyridazine] | 7.2 |
| FC(F)(F)c1nnc2ccc(N3CCN(Cc4ccc(Br)nc4)CC3)nn12 [Example 374, 6-[4-[(6-bromopyridin-3-yl)methyl]piperazin-1-yl]-3-(trifluoromethyl)[1,2,4]triazolo[4,3-b]pyridazine] | 0.93 |
| CC(=O)N1CCN(CCOc2ccc(C3CCN(c4ccc5nnc(C(F)(F)F)n5n4)CC3)cc2)CC1 [Example 852, 6-[4-[4-[2-(4-acetylpiperazin-1-yl)ethoxy]phenyl]piperidin-1-yl]-3-(trifluoromethyl)[1,2,4]triazolo[4,3-b]pyridazine] | 0.29 |
